Laboratory results taken from US11976058B2, “Aromatic derivatives, preparation methods, and medical uses thereof” (Bioardis LLC, priority 2019, dated 2024).
Like-named read-outs stand apart in the source and are kept apart here.

Key:
[1] = tested on: MAPK phosphorylation in Hep3B cells stimulated with FGF19; experiment: FGFR4 pMAPK AlphaLISA SureFire Ultra assay; type: cell-based; details: serum-starved, compound 1 hour, FGF19 100 ng/ml for 4 hours, read-out: Potency (IC50), FGFR4 pMAPK AlphaLISA
Source text: (§1) Cell line: Hepatocellular carcinoma cell line Hep3B (ATCC, Cat #HB-8064).
In normal liver, circulating FGF19 drives liver cell proliferation and regulates bile acid production. However aberrant expression of FGF19 in the liver drives HCC tumorigenesis, upregulates MAPK phosphorylation in FGF19-amplified malignant liver cells. AlphaScreen SureFire technology allows the detection of phosphorylated proteins in cellular lysates in a highly sensitive, quantitative assay. In these assays, sandwich antibody complexes, which are only formed in the presence of analyte, are captured by AlphaScreen Donor and Acceptor beads, bringing them into close proximity. The excitation of the Donor bead provokes the release of singlet oxygen molecules that triggers a cascade of energy transfer in the Acceptor beads, resulting in the emission of light at 520-620 nm.
Hep3B cells were plated at a density of 1×10^4/ml cells in a 96-well plate (Corning #3599), with 100 uL per well of MEM Medium (Gibco Cat #11095-080) supplemented with 10% fetal bovine serum; 1% Penicillin-Streptomycin, and cultured overnight at 37° C., 5% CO2. Starve Hep3B cells in serum-free medium (SFM) supplemented with 0.2% BSA and incubate the cells again overnight at 37° C., 5% CO2. Various concentrations of the test compound (prepared in 2x SFM) were added to the wells of the cell plate and then incubated for 1 hour at 37° C., 5% CO2. 50 μL of FGF19 in SFM was added to each well of the cell plate with a final FGF19 concentration of 100 ng/ml, and cells treated with FGF19 were stimulated for 4 hours at 37° C., 5% CO2. 5 μL of freshly prepared Donor Mix and Acceptor Mix were sequentially added to the cell plate, each followed with 1 hour of incubation at 25° C., 5% CO2. Read the cell plate on an Alpha Technology-compatible plate reader at 570 nm AlphaScreen, using standard AlphaLISA settings. The percent (%) inhibition=((ZPE−Alpha-Signal)/(ZPE−HPE))*100% where the meanings of HPE and ZPE are as provided below.
HPE: Hundred Percent Effect, negative control well without FGF19 nor compound. Final concentration of DMSO is 0.1%.
ZPE: Zero Percent Effect, positive control well without compound. Final concentration of FGF19 is 100 ng/mL, DMSO is 0.1%.
The concentrations and percent inhibition values for a test compound were plotted and the concentration of the compound required to achieve 50% inhibition (IC50) was determined with a four-parameter logistic dose response equation. Dose-response curves were generated using Prism (GraphPad Software, La Jolla, CA, US) to calculate IC50 values for each compound tested.

human FGFR4 = biological target: T1, human FGFR4 (Homo sapiens, UniProt P22455); experiment: FGFR4 enzymatic assay (HTRF KinEASE-TK); type: biochemical; details: wild-type human FGFR4 cytoplasmic domain (460-802), GST-tag; 60 min preincubation at 25° C.; ATP 200 μM; read-out: Potency (IC50), FGFR4 enzymatic assay
T1 construct: human FGFR4 cytoplasmic domain (460-802); GST (N); purchased Carna Biosciences 08-136
T1 sequence (P22455 460-802): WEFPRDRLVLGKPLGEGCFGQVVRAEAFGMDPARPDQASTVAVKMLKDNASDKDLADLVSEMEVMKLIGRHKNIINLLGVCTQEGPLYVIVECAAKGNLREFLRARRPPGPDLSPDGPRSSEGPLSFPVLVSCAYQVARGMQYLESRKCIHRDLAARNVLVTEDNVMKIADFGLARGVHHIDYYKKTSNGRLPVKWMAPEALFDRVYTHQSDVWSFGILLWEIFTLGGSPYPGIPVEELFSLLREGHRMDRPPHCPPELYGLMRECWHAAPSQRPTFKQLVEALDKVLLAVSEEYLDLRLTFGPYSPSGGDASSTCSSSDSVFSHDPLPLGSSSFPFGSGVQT
Description: The ability of compounds to inhibit human FGFR4 tyrosine kinase activities was determined using a commercially available HTRF® KinEASE™-TK kit (CISBIO, Cat #62TK0PEC) according to the manufacturer's protocol. Wild-type human FGFR4 cytoplasmic domain (460-802) with N-terminal GST-tag was purchased from Carna Biosciences (Carna, Cat #08-136) and used in the kinase enzymatic assay. This assay, run in a 384-well plate format, is a generic method for measuring tyrosine kinase activities using one substrate and a universal detection system. It involves two steps: (1) Enzymatic step: the biotin labeled TK Substrate is incubated with the kinase and then ATP is added to start the enzymatic reaction; during this step, FGFR4 will phosphorylate the TK Substrate-biotin. (2) Detection step: The TK-Antibody labeled with Eu^3+-Cryptate can recognize the phosphorylated TK Substrate-biotin. When the streptavidin-XL665 conjugate binds the biotin, a FRET signal will be detected. Briefly, human FGFR4 (0.25 μg/ml) in the enzymatic buffer solutions (250 mM HEPES, pH7.0, 0.1% NaN3, 0.05% BSA, 0.5 mM Orthovanadate) were mixed with various concentrations of the test compound (dissolved in 100% DMSO). These solutions were incubated for 60 min at 25° C., and subsequently a mixture of substrate peptide and ATP was added with the final peptide and ATP concentrations at 0.3 μM and 200 μM respectively. The final reaction mixture of enzyme-substrate-ATP-compound was incubated for 40 min at 37° C. Meanwhile the detection mixture containing the TK-antibody and Streptavidin-XL665 diluted in the detection buffer (50 mM HEPES, pH7.0, with additives) was prepared, and added to the reaction mixture at final concentrations of 25 nM and 18.5 nM respectively. After incubation for 60 min at 25° C., the FRET signal of the final solution was measured at 665 nm and 612 nm emissions on a TECAN Spark 10M instrument (TECAN). The percent (%) inhibition at each concentration of a compound was calculated relative to the FRET signal in the Max and Min control wells contained within each assay plate. The Max control wells contained enzyme and substrate as 0% inhibition, and the Min control wells only contained substrate without enzyme as 100% inhibition. The concentrations and percent inhibition values for a test compound are plotted and the concentration of the compound required to achieve 50% inhibition (IC50) was determined with a four-parameter logistic dose response equation. Dose-response curves were generated using Prism (GraphPad Software, La Jolla, CA, US) to calculate IC50 values for each compound tested.

Hep3B cells = experiment: Cell-based FGFR4 proliferation assay (CellTiter-Glo); details: incubated with test compound for 3 days, CellTiter-Glo luminescence, read-out: Potency (IC50), Hep3B cell proliferation
Description: Hepatocellular carcinoma cell line Hep3B (ATCC, Cat #HB-8064) were cultured at 37° C., 5% CO2 in ATCC-formulated Eagle's Minimum Essential Medium supplemented with 10% fetal bovine serum; 1% Penicillin-Streptomycin.
as §1
In this assay, Hep3B cells are seeded in 384-well microplates, and after exposure to experimental compounds for […], CellTiter-Glo® Luminescent Cell Viability Assay kit (Promega, Cat #G7572) are used to determine the number of viable cells in the culture based on quantitation of the ATP present, which signals the presence of metabolically active cells. Luminescent signal is proportional to the amount of ATP present. The amount of ATP is directly proportional to the number of cells present in the culture, allowing drug-induced effects on cell proliferation to be measured.
Hep3B cells were plated at a density of 4×10^4/ml cells in a 384-well black/clear microplate with 20 μL per well of MEM Medium (Gibco Cat. #11095-080) supplemented with 10% fetal bovine serum; 1% Penicillin-Streptomycin, and cultured overnight at 37° C., 5% CO2. Various concentrations of the test compound (dissolved in 100% DMSO) were added to the wells of the cell plate. The cells were incubated with the test compound for 3 days at 37° C., 5% CO2. 5 μL of CellTiter-Glo® Reagent was added to each well of the cell plate. The cell plate was incubated for 5 min at 25° C. on a plate shaker (IKA MTS 2/4) at 300 rpm. Luminescence signals were read on a TECAN Spark 10M instrument (TECAN). […] The concentrations and percent inhibition values for a test compound were plotted and the concentration of the compound required to achieve 50% inhibition (IC50) is determined with a four-parameter logistic dose response equation. Dose-response curves were generated using Prism (GraphPad Software, La Jolla, CA, US) to calculate IC50 values for each compound tested.

IC50 ([1]; Homo sapiens, Hep3B) [µM] | IC50 (human FGFR4) [µM] | IC50 (Hep3B cells; Homo sapiens, Hep3B, 72 h) [µM] | IC50 [1] [µM] | IC50 (Hep3B cells) [µM] | SMILES
0.01 to 0.1 | 0.01 to 0.1 | > 0.1 |  |  | [2H]C([2H])([2H])Oc1cc(OC([2H])([2H])[2H])c(F)c(C2CCc3c(-c4c(NC(=O)C=C)cnn4C)n[nH]c3C2)c1 (single isomer, unassigned) [Compound S8-P3, N-(5-(6-(2-fluoro-3,5-bis(methoxy-d3)phenyl)-4,5,6,7-tetrahydro-1H-indazol-3-yl)-1-methyl-1H-pyrazol-4-yl) acrylamide]
> 0.1 | 0.01 to 0.1 |  |  | > 0.1 | C=CC(=O)Nc1ncn(C)c1-c1n[nH]c2c1CCC(c1c(F)c(OC)cc(OC)c1F)C2 (single isomer, unassigned) [Compound S3-P2, N-(5-(6-(2,6-Difluoro-3,5-dimethoxyphenyl)-4,5,6,7-tetrahydro-1H-indazol-3-yl)-1-methyl-1H-imidazol-4-yl) Acrylamide]
 | < 0.01 |  | < 0.01 | 0.01 to 0.1 | C=CC(=O)Nc1cnn(C)c1-c1n[nH]c2c1CCC(c1c(F)c(OC)cc(OC)c1F)C2 (single isomer, unassigned) [Compound S1-P2, N-(5-(6-(2,6-difluoro-3,5-dimethoxyphenyl)-4,5,6,7-tetrahydro-1H-indazol-3-yl)-1-methyl-1H-pyrazol-4-yl)acrylamide]
0.01 to 0.1 | 0.01 to 0.1 | > 0.1 |  |  | C=CC(=O)Nc1cnn(CC)c1-c1n[nH]c2c1CC[C@@H](c1c(F)c(OC)cc(OC)c1F)C2 [Compound S14-P1, (R)—N-(5-(6-(2,6-difluoro-3,5-dimethoxyphenyl)-4,5,6,7-tetrahydro-1H-indazol-3-yl)-1-ethyl-1H-pyrazol-4-yl) acrylamide]

Continued, compound first:

SMILES | IC50 ([1]; Homo sapiens, Hep3B) [µM] | IC50 (human FGFR4) [µM] | IC50 (Hep3B cells; Homo sapiens, Hep3B, 72 h) [µM] | IC50 [1] [µM] | IC50 (Hep3B cells) [µM]
C=CC(=O)Nc1cn[nH]c1-c1n[nH]c2c1CCCC(c1cc(OC)cc(OC)c1F)C2 (single isomer, unassigned) [Compound S11-P4, N-(5-(7-(2-fluoro-3,5-dimethoxyphenyl)-1,4,5,6,7,8-hexahydrocyclohepta[c]pyrazol-3-yl)-1H-pyrazol-4-yl)acrylamide] |  | < 0.01 |  | < 0.01 | < 0.01
[2H]C([2H])([2H])n1ncc(NC(=O)C=C)c1-c1n[nH]c2c1CCC(c1c(F)c(OC)cc(OC)c1F)C2 (single isomer, unassigned) [Compound S16-P1, N-(5-(6-(2,6-difluoro-3,5-dimethoxyphenyl)-4,5,6,7-tetrahydro-1H-indazol-3-yl)-1-(methyl-d3)-1H-pyrazol-4-yl)acrylamide] | < 0.01 | < 0.01 | 0.01 to 0.1 |  | 
C=CC(=O)Nc1cn[nH]c1-c1n[nH]c2c1CCCC(c1cc(OC)cc(OC)c1F)C2 (single isomer, unassigned) [Compound S11-P3, N-(5-(7-(2-fluoro-3,5-dimethoxyphenyl)-1,4,5,6,7,8-hexahydrocyclohepta[c]pyrazol-3-yl)-1H-pyrazol-4-yl)acrylamide] | < 0.01 | < 0.01 | 0.01 to 0.1 |  | 
C=CC(=O)Nc1cn(C)nc1-c1n[nH]c2c1CCCC(c1cc(OC)cc(OC)c1F)C2 (single isomer, unassigned) [Compound S12-P3, N-(3-(7-(2-fluoro-3,5-dimethoxyphenyl)-1,4,5,6,7,8-hexahydrocyclohepta[c]pyrazol-3-yl)-1-methyl-1H-pyrazol-4-yl) acrylamide] | < 0.01 | 0.01 to 0.1 | 0.01 to 0.1 |  | 
C=CC(=O)Nc1cnn(C)c1-c1n[nH]c2c1CCC[C@@H](c1c(F)c(OC)cc(OC)c1F)C2 (single isomer, unassigned) [Compound S4-P1] | < 0.01 | < 0.01 | < 0.01 |  | 
C=CC(=O)Nc1cnn(C)c1-c1n[nH]c2c1CCC1(C2)OCc2c(OC)cc(OC)c(F)c21 (stereo not drawn) [Compound S9, N-(5-(7′-fluoro-4′,6′-dimethoxy-1,4,5,7-tetrahydro-3′H-spiro[indazole-6,1′-isobenzofuran]-3-yl)-1-methyl-1H-pyrazol-4-yl)acrylamide] | > 0.1 | 0.01 to 0.1 | > 0.1 |  | 
C=CC(=O)Nc1c[nH]nc1-c1n[nH]c2c1CCC(c1cc(OC)cc(OC)c1F)C2 (single isomer, unassigned) [Compound S15-P4, N-(3-(6-(2-fluoro-3,5-dimethoxyphenyl)-4,5,6,7-tetrahydro-1H-indazol-3-yl)-1H-pyrazol-4-yl)acrylamide] |  | 0.01 to 0.1 |  | < 0.01 | 0.01 to 0.1
[2H]C([2H])([2H])n1ncc(NC(=O)C=C)c1-c1n[nH]c2c1CCC(c1cc(OC)cc(OC)c1F)C2 (single isomer, unassigned) [Compound S16-P3, N-(5-(6-(2-fluoro-3,5-dimethoxyphenyl)-4,5,6,7-tetrahydro-1H-indazol-3-yl)-1-(methyl-d3)-1H-pyrazol-4-yl)acrylamide] | 0.01 to 0.1 | 0.01 to 0.1 | > 0.1 |  | 
